± gives the expanded uncertainty stated by the source.
Experiment: activity coefficient (dimensionless); of the first substance listed, at infinite dilution; xn = mol fraction of the nth substance listed
Details: 101 kPa, Liquid, Chromatography, x1 = 0

Compound	activity coefficient (312.8 K)	activity coefficient (332.85 K)	activity coefficient (354.65 K)	activity coefficient (322.55 K)	activity coefficient (342.75 K)	activity coefficient (362.65 K)	further results
ClCCl [dichloromethane] + CCCCCC[n+]1ccn(C)c1.FC(F)(F)C(F)(F)[P-](F)(F)(F)(C(F)(F)C(F)(F)F)C(F)(F)C(F)(F)F	0.66 ± 0.045	0.699 ± 0.047	0.707 ± 0.047	–	–	–	–
CCCCCC [hexane] + CCCCCC[n+]1ccn(C)c1.FC(F)(F)C(F)(F)[P-](F)(F)(F)(C(F)(F)C(F)(F)F)C(F)(F)C(F)(F)F	6.39 ± 0.44	5.69 ± 0.39	4.41 ± 0.3	–	–	–	–
C1COCCO1 [1,4-dioxane] + CCCCCCCCCCn1cc[n+](CCCCCCCCCC)c1C.O=S(=O)([N-]S(=O)(=O)C(F)(F)F)C(F)(F)F	–	–	–	–	–	–	activity coefficient (323.1 K): 0.463 ± 0.036; activity coefficient (333.15 K): 0.46 ± 0.036; activity coefficient (343.15 K): 0.453 ± 0.036
CCOCC [diethyl ether] + CCCCn1cc[n+](C)c1.O=S(=O)([N-]S(=O)(=O)C(F)(F)C(F)(F)F)C(F)(F)C(F)(F)F	–	–	–	1.72 ± 0.12	1.7 ± 0.11	1.65 ± 0.11	–
ClC(Cl)Cl [trichloromethane] + CCCCCCCCCCn1cc[n+](CCCCCCCCCC)c1C.O=S(=O)([N-]S(=O)(=O)C(F)(F)F)C(F)(F)F	–	–	–	–	–	–	activity coefficient (323.1 K): 0.374 ± 0.033; activity coefficient (333.15 K): 0.395 ± 0.034; activity coefficient (343.15 K): 0.402 ± 0.034
CC(C)O [propan-2-ol] + CCCCCC[n+]1ccn(C)c1.FC(F)(F)C(F)(F)[P-](F)(F)(F)(C(F)(F)C(F)(F)F)C(F)(F)C(F)(F)F	2.06 ± 0.14	1.62 ± 0.11	1.26 ± 0.081	–	–	–	–
c1ccsc1 [thiophene] + CCCCCC[n+]1ccn(C)c1.FC(F)(F)C(F)(F)[P-](F)(F)(F)(C(F)(F)C(F)(F)F)C(F)(F)C(F)(F)F	0.577 ± 0.041	0.602 ± 0.042	0.604 ± 0.042	–	–	–	–
C[N+](=O)[O-] [nitromethane] + CCCCCCCCCCn1cc[n+](CCCCCCCCCC)c1C.O=S(=O)([N-]S(=O)(=O)C(F)(F)F)C(F)(F)F	–	–	–	–	–	–	activity coefficient (323.1 K): 0.596 ± 0.042; activity coefficient (333.15 K): 0.559 ± 0.04; activity coefficient (343.15 K): 0.536 ± 0.039
CC(C)OC(C)C [diisopropyl ether] + CCCCn1cc[n+](C)c1.O=S(=O)([N-]S(=O)(=O)C(F)(F)C(F)(F)F)C(F)(F)C(F)(F)F	–	–	–	3.46 ± 0.24	3.46 ± 0.23	3.43 ± 0.23	–
C#CCCCC [1-hexyne] + CCCCCC[n+]1ccn(C)c1.FC(F)(F)C(F)(F)[P-](F)(F)(F)(C(F)(F)C(F)(F)F)C(F)(F)C(F)(F)F	1.94 ± 0.13	1.89 ± 0.13	1.75 ± 0.12	–	–	–	–
OCC(F)(F)F [2,2,2-trifluoroethanol] + CCCCn1cc[n+](C)c1.O=S(=O)([N-]S(=O)(=O)C(F)(F)C(F)(F)F)C(F)(F)C(F)(F)F	–	–	–	0.457 ± 0.036	0.412 ± 0.034	0.373 ± 0.033	–
CCOCC [diethyl ether] + CCCCCC[n+]1ccn(C)c1.FC(F)(F)C(F)(F)[P-](F)(F)(F)(C(F)(F)C(F)(F)F)C(F)(F)C(F)(F)F	0.837 ± 0.054	0.866 ± 0.055	0.897 ± 0.057	–	–	–	–
C=O [methanal] + CCCCCCCCCCn1cc[n+](CCCCCCCCCC)c1C.O=S(=O)([N-]S(=O)(=O)C(F)(F)F)C(F)(F)F	–	–	–	–	–	–	activity coefficient (323.1 K): 0.074 ± 0.03; activity coefficient (333.15 K): 0.08 ± 0.03; activity coefficient (343.15 K): 0.085 ± 0.03
Cc1ccccc1C [1,2-dimethylbenzene] + CCCCCC[n+]1ccn(C)c1.FC(F)(F)C(F)(F)[P-](F)(F)(F)(C(F)(F)C(F)(F)F)C(F)(F)C(F)(F)F	0.888 ± 0.057	0.947 ± 0.06	0.957 ± 0.06	–	–	–	–
C#CCCCCC [1-heptyne] + CCCCn1cc[n+](C)c1.O=S(=O)([N-]S(=O)(=O)C(F)(F)C(F)(F)F)C(F)(F)C(F)(F)F	–	–	–	3.91 ± 0.27	3.76 ± 0.26	3.58 ± 0.24	–
CC(C)CC(C)(C)C [2,2,4-trimethylpentane] + CCCCCC[n+]1ccn(C)c1.FC(F)(F)C(F)(F)[P-](F)(F)(F)(C(F)(F)C(F)(F)F)C(F)(F)C(F)(F)F	7.98 ± 0.54	7.13 ± 0.49	6.18 ± 0.42	–	–	–	–

Compound	activity coefficient (312.8 K)	activity coefficient (332.85 K)	activity coefficient (354.65 K)	activity coefficient (322.55 K)	activity coefficient (342.75 K)	activity coefficient (362.65 K)	further results
CC(C)OC(C)C [diisopropyl ether] + CCn1cc[n+](C)c1.CS(=O)(=O)[O-]	–	–	–	–	–	–	activity coefficient (312.55 K): 84.5 ± 5.8; activity coefficient (322.45 K): 74.2 ± 5.1; activity coefficient (332.45 K): 67.7 ± 4.6
C1COCCO1 [1,4-dioxane] + CCCCCC[n+]1ccn(C)c1.FC(F)(F)C(F)(F)[P-](F)(F)(F)(C(F)(F)C(F)(F)F)C(F)(F)C(F)(F)F	0.273 ± 0.03	0.327 ± 0.032	0.339 ± 0.032	–	–	–	–
C#CCCCC [1-hexyne] + CCCCCCCCCCn1cc[n+](CCCCCCCCCC)c1C.O=S(=O)([N-]S(=O)(=O)C(F)(F)F)C(F)(F)F	–	–	–	–	–	–	activity coefficient (323.1 K): 0.925 ± 0.058; activity coefficient (333.15 K): 0.917 ± 0.058; activity coefficient (343.15 K): 0.899 ± 0.057
c1ccccc1 [benzene] + CCCCCC[n+]1ccn(C)c1.FC(F)(F)C(F)(F)[P-](F)(F)(F)(C(F)(F)C(F)(F)F)C(F)(F)C(F)(F)F	0.517 ± 0.039	0.552 ± 0.04	0.564 ± 0.041	–	–	–	–
CCC(C)=O [butanone] + CCCCCC[n+]1ccn(C)c1.FC(F)(F)C(F)(F)[P-](F)(F)(F)(C(F)(F)C(F)(F)F)C(F)(F)C(F)(F)F	0.204 ± 0.029	0.195 ± 0.029	0.171 ± 0.029	–	–	–	–
CCC(C)=O [butanone] + CCCCn1cc[n+](C)c1.O=S(=O)([N-]S(=O)(=O)C(F)(F)C(F)(F)F)C(F)(F)C(F)(F)F	–	–	–	0.453 ± 0.036	0.389 ± 0.034	0.351 ± 0.032	–
CCCCCCCCCC [decane] + CCCCCC[n+]1ccn(C)c1.FC(F)(F)C(F)(F)[P-](F)(F)(F)(C(F)(F)C(F)(F)F)C(F)(F)C(F)(F)F	22.7 ± 1.6	19 ± 1.3	15.3 ± 1	–	–	–	–
Cc1ccccc1C [1,2-dimethylbenzene] + CCCCn1cc[n+](C)c1.O=S(=O)([N-]S(=O)(=O)C(F)(F)C(F)(F)F)C(F)(F)C(F)(F)F	–	–	–	1.87 ± 0.13	1.89 ± 0.13	1.97 ± 0.13	–
CCCCCCCC [octane] + CCCCCC[n+]1ccn(C)c1.FC(F)(F)C(F)(F)[P-](F)(F)(F)(C(F)(F)C(F)(F)F)C(F)(F)C(F)(F)F	12.2 ± 0.83	10.5 ± 0.72	8.87 ± 0.6	–	–	–	–
CC#N [acetonitrile] + CCCCn1cc[n+](C)c1.O=S(=O)([N-]S(=O)(=O)C(F)(F)C(F)(F)F)C(F)(F)C(F)(F)F	–	–	–	0.528 ± 0.039	0.514 ± 0.038	0.504 ± 0.038	–
CCCCO [butan-1-ol] + CCCCn1cc[n+](C)c1.O=S(=O)([N-]S(=O)(=O)C(F)(F)C(F)(F)F)C(F)(F)C(F)(F)F	–	–	–	2.49 ± 0.17	2 ± 0.14	1.7 ± 0.11	–
C1COCCO1 [1,4-dioxane] + CCCCn1cc[n+](C)c1.O=S(=O)([N-]S(=O)(=O)C(F)(F)C(F)(F)F)C(F)(F)C(F)(F)F	–	–	–	0.429 ± 0.035	0.607 ± 0.042	0.576 ± 0.041	–
Cc1ccccc1 [toluene] + CCCCn1cc[n+](C)c1.O=S(=O)([N-]S(=O)(=O)C(F)(F)C(F)(F)F)C(F)(F)C(F)(F)F	–	–	–	1.4 ± 0.091	1.42 ± 0.093	1.46 ± 0.096	–
CCN(CC)CC [triethylamine] + CCn1cc[n+](C)c1.CS(=O)(=O)[O-]	–	–	–	–	–	–	activity coefficient (312.55 K): 8.32 ± 0.57; activity coefficient (322.45 K): 14.3 ± 0.98; activity coefficient (332.45 K): 18.8 ± 1.3
c1ccccc1 [benzene] + CCCCn1cc[n+](C)c1.O=S(=O)([N-]S(=O)(=O)C(F)(F)C(F)(F)F)C(F)(F)C(F)(F)F	–	–	–	1.01 ± 0.063	1.02 ± 0.064	1.03 ± 0.065	–
CCO [ethanol] + CCn1cc[n+](C)c1.CS(=O)(=O)[O-]	–	–	–	–	–	–	activity coefficient (312.55 K): 0.438 ± 0.035; activity coefficient (322.45 K): 0.418 ± 0.035; activity coefficient (332.45 K): 0.405 ± 0.034

Source: the NIST ThermoML archive (doi:10.1021/je200195q)
